What all share (assay type): cell-based
For experiment [1], the system named is CHP-212 neuroblastoma cells. In words: Synergy of MBZ or HA-PLGA-MBZ with chemotherapeutic agents (Chou-Talalay CI, Cell Titer Glo). The conditions noted are these: CHP-212 + 4-HC.
Description: For in vitro experiments, cells were plated in triplicate and treated with a range of concentrations of MBZ and relevant chemotherapeutic agents in a complete Latin square.
Cells were plated in triplicate and treated with a range of 5 concentrations of MBZ in combination with 5 concentrations of chemotherapeutic agents in a complete Latin square. Following a 72 hour incubation, cell viability was determined using Cell Titer Glo.
In table 22 below, cells were plated in triplicate and treated with a range of 5 concentrations of MBZ or HA-PLGA-MBZ nanoparticles containing a molar equivalent of MBZ, and 5 concentrations of relevant chemotherapeutic agents in a complete Latin square. Combination indexes (CI) were determined based on the method described by Chou-Talalay with a CI value less than 0.9 indicating synergy. […] Numbers in parentheses represent the range of synergistic CI values for each cell line and drug combination.
The test system of experiment [2] is SKOV-3 ovarian carcinoma cell line. In words: MBZ cell viability IC50 (CellTiter Glo). To be noted: Homo sapiens, SK-OV-3, 72 hours, 0-50 μM. Here is the method:
(§1) The effect of mebendazole administration on cell lines derived from exemplary cancers was tested. One approach to determining the effectiveness of mebendazole in the treatment of cancer comprises in vitro testing. In this approach, cancer cell lines representative of the cancers of the disclosure are cultured in vitro according to standard techniques (see, for example, Human Cell Culture Protocols, Third Edition, […] R. D. Hughes, Editors, Humana Press, 2012), and increasing concentrations of mebendazole are administered to determine the IC50 value. As used herein, the term “IC50 value” refers to the concentration of a compound (for example mebendazole) wherein the response to that compound (such as inhibited cellular viability) is reduced by half. The IC50 is thus a measure of the effectiveness of a compound in inhibiting a biological process. […] Based on this biology, several rare cancer tumor cell lines including neuroblastoma, rhabdomyosarcoma and Ewing sarcoma were analyzed for sensitivity to MBZ treatment in vitro. […] In all cases, including those described below, the viable cells were determined using the CellTiter Glo® kit and an IC50 curve was generated using the PRISM software. […] FIGS. 1 and 2 show the effect of mebendazole on 3 ovarian cancer derived cell lines, A2780cis, SKOV-3 and TOV-112D at 24 hours, 48 hours and 72 hours. […] Percent cell viability is shown on the Y-axis, from 0 to 150 in units of 25. A2780cis cell data are represented by filled circles and a dotted line. SKOV-3 cell data are represented by squares and a solid line. TOV-112D cell data are represented by triangles and a dashed line. […] In FIG. 2, on the X-axis, the log concentration of mebendazole in μM, indicated from -4 to 4 in units of 2. In FIG. 2, on the Y-axis, percent viability is shown, from 0 to 125 in units of 25.

The test system of the next experiment is A2780cis cells. Nature of the experiment: MBZ cell viability IC50 (CellTiter Glo). The conditions noted are these: 72 hours. Here is the method:
as §1

Another experiment deals with TOV-112D cells. Nature of the experiment: MBZ cell viability IC50 (CellTiter Glo). The conditions noted are these: Homo sapiens, TOV112D, 72 hours. The protocol: as §1
The subject of experiment [3] is Rh-30 rhabdomyosarcoma cell line. Nature of the experiment: MBZ cell viability IC50 (CellTiter Glo). The conditions noted are these: Rh30, 72 hours. Here is the method: (§2) The effect of mebendazole administration on cell lines derived from exemplary cancers was tested. One approach to determining the effectiveness of mebendazole in the treatment of cancer comprises in vitro testing. In this approach, cancer cell lines representative of the cancers of the disclosure are cultured in vitro according to standard techniques (see, for example, Human Cell Culture Protocols, Third Edition, […] R. D. Hughes, Editors, Humana Press, 2012), and increasing concentrations of mebendazole are administered to determine the IC50 value. As used herein, the term “IC50 value” refers to the concentration of a compound (for example mebendazole) wherein the response to that compound (such as inhibited cellular viability) is reduced by half. The IC50 is thus a measure of the effectiveness of a compound in inhibiting a biological process. […] Based on this biology, several rare cancer tumor cell lines including neuroblastoma, rhabdomyosarcoma and Ewing sarcoma were analyzed for sensitivity to MBZ treatment in vitro. […] In all cases, including those described below, the viable cells were determined using the CellTiter Glo® kit and an IC50 curve was generated using the PRISM software.

Experiment [4] concerns TC-71 Ewing's sarcoma cell line. Nature of the experiment: MBZ cell viability IC50 (CellTiter Glo). To be noted: 72 hours. Here is the method: as §2
The test system of experiment [5] is SNU-16 gastric carcinoma cell line. In words: MBZ cell viability IC50 (CellTiter Glo). The conditions noted are these: Homo sapiens, 72 hours. The protocol:
as §2

Experiment [6] concerns TC-32 Ewing's sarcoma cell line. Nature of the experiment: MBZ cell viability IC50 (CellTiter Glo). The conditions noted are these: Homo sapiens, 72 hours. The protocol:
as §2

The subject of the next experiment is PC-12 cells. In words: MBZ vs HA-PLGA-MBZ cell viability IC50 (Cell Titer Glo). To be noted: Rattus norvegicus, 72 hour incubation. From the text: (§3) An IC50 for each treatment was established using the PRISM software.
In another experiment the test system is DMS-114 cells. Described as above. The conditions noted are these: Homo sapiens, 72 hour incubation.
Description: as §3

The test system of another experiment is HCT-116 cells. The experiment is described as above. The conditions noted are these: Homo sapiens, 72 hour incubation.
Description: as §3

The next experiment has as its system SW-1271 cells. Described as above. To be noted: SW1271, 72 hour incubation.
Description: as §3

In another experiment the test system is COLO-205 cells. The experiment is described as above. The conditions noted are these: Homo sapiens, 72 hour incubation.
Description: as §3

In a further experiment the test system is COV-362 cells. The description is as above. To be noted: COV362, 72 hour incubation.
Description: as §3

The test system of a further experiment is SKOV-3 cells. Described as above. To be noted: Homo sapiens, SK-OV-3, 72 hour incubation.
Description: as §3

The test system of a further experiment is SK-UT-1 cells. The experiment is described as above. The conditions noted are these: Homo sapiens, 72 hour incubation.
Description: as §3

For a further experiment, the system named is CHP-212 cells. The experiment is described as above. The conditions noted are these: Homo sapiens, 72 hour incubation.
Description: as §3

The subject of experiment [7] is rare cancer tumor cell lines including neuroblastoma, rhabdomyosarcoma and Ewing sarcoma. In words: MBZ cell viability IC50 across rare cancer tumor cell lines. The conditions noted are these: several rare cancer tumor cell lines; 72 hours; read-out: IC50s (range over cell lines). The protocol: as §2
A further experiment relates to U-CH2 chordoma cell line. In words: MBZ cell viability dose response (CellTiter Glo). The conditions noted are these: 72 hours, up to the highest concentration, 50 μM. The protocol: (§4) The effect of mebendazole administration on cell lines derived from exemplary cancers was tested. One approach to determining the effectiveness of mebendazole in the treatment of cancer comprises in vitro testing. In this approach, cancer cell lines representative of the cancers of the disclosure are cultured in vitro according to standard techniques (see, for example, Human Cell Culture Protocols, Third Edition, […] R. D. Hughes, Editors, Humana Press, 2012), and increasing concentrations of mebendazole are administered to determine the IC50 value. As used herein, the term “IC50 value” refers to the concentration of a compound (for example mebendazole) wherein the response to that compound (such as inhibited cellular viability) is reduced by half. The IC50 is thus a measure of the effectiveness of a compound in inhibiting a biological process. […] Based on this biology, several rare cancer tumor cell lines including neuroblastoma, rhabdomyosarcoma and Ewing sarcoma were analyzed for sensitivity to MBZ treatment in vitro. […] In all cases, including those described below, the viable cells were determined using the CellTiter Glo® kit and an IC50 curve was generated using the PRISM software. […] A dose response curve was generated using the PRISM software, with the intent of determining an IC50 for the cell lines following treatment of MBZ.

Experiment [8] has as its system MUG-Chor1 chordoma cell line. Nature of the experiment: MBZ cell viability dose response (CellTiter Glo). To be noted: 72 hours, up to the highest concentration, 50 μM. The protocol: as §4

Structures are written as SMILES.

Regarding `COC(=O)Nc1nc2ccc(C(=O)c3ccccc3)cc2[nH]1` [MBZ, methyl N-(6-benzoyl-1H-benzimidazol-2-yl)carbamate], the “range of synergistic CI values” in experiment [1] is listed as 0.569-0.860. Also, the IC50 in experiment [2] is approximately 4.4 µM; in the experiment with A2780cis cells it was 0.25 µM; in the experiment with TOV-112D cells, 0.2 µM; in experiment [3] it was 0.1 µM; in [4], 0.47 µM; in [5], 0.42 µM. In addition, the IC50 in experiment [6] is 0.41 µM; in the experiment with PC-12 cells it was 1.03 µM; with DMS-114 cells, 0.8 µM; in the experiment with HCT-116 cells, 0.32 µM; in the experiment on SW-1271 cells, more than 50 µM; with COLO-205 cells, 0.27 µM. Besides, the IC50 is 0.33 µM with COV-362 cells; 0.68 µM in the experiment on SKOV-3 cells; 0.26 µM in the experiment with SK-UT-1 cells; 0.13 µM in the experiment with CHP-212 cells; 0.05 to 1 µM in [7]. Further, the “sensitivity to MBZ treatment (dose response)” value (in the experiment on U-CH2 chordoma cell line; in experiment [8]) was “largely resistant” each time.

Source of the values: US20190175560A1, “MEBENDAZOLE CANCER THERAPIES AND METHODS OF USE” (Shepherd Therapeutics, Inc., priority 2017, published 2019).
